Values quoted from earlier work as cited in patent US20190380992A1 (Biogen MA Inc., priority 2014, published 2019).
Where a name gives a salt, the structure may show the parent alone.

Legend:
[1] = system: multiple sclerosis patients; conditions: compared with placebo after two years of treatment
[2] = system: multiple sclerosis patients; conditions: second phase 3 study; glatiramer acetate as active reference
patients initiating DMF = conditions: DEFINE and CONFIRM studies

COC(=O)/C=C/C(=O)OC [DMF, dimethyl fumarate]
accumulation of disability progression [1]: significantly reduced | clinical relapses [1]: significantly reduced | lesion number and volume [1]: significantly reduced | support of the DEFINE findings [2]: findings were supported | safety profile (patients initiating DMF): acceptable safety profile
